Measured values taken from patent publication US20180155344A1, “TRICYCLIC PIPERIDINE COMPOUNDS” (ACTELION PHARMACEUTICALS LTD, priority 2015, published 2018).
pIC50: −log10 of the molar value.

target: T1, human TPH1 (Homo sapiens, UniProt P17752); assay: biochemical
T1 sequence (P17752 1-444): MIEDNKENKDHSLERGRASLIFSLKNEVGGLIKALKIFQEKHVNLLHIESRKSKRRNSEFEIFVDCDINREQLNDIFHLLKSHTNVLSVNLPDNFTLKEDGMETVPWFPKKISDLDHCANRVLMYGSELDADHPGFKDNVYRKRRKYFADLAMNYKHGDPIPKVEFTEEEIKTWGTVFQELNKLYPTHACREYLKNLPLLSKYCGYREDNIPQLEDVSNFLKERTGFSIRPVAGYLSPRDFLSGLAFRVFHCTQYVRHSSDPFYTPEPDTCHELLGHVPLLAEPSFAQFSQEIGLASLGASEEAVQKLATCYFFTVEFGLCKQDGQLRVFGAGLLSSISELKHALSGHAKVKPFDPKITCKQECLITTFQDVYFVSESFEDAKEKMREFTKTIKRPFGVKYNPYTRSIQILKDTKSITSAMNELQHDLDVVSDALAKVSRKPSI
Procedure, shortened: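 Inhibition is derived from 5-hydroxy-L-tryptophan fluorescence (540 nm emission, 300 nm excitation) after perchloric acid stop, relative to DMSO vehicle. Recombinant full-length human enzyme (40-80 nM) reacts with 40 μM tryptophan plus 100 μM methyltetrahydropterin, pH 7.6 Tris/DTT/catalase, 15° C, 60 min.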

pIC50 | SMILES
7.05 | COc1ccc(C2c3c(nc4cc(C(F)(F)F)ccn34)CCN2C(=O)COc2ccc3ccccc3c2)nc1 (centres unmarked) [Example 3.52.1, 1-(1-(5-methoxypyridin-2-yl)-7-(trifluoromethyl)-3,4-dihydroimidazo[1,2-a:5,4-c′]dipyridin-2(1H)-yl)-2-(naphthalen-2-yloxy)ethan-1-one]
6.50 | COc1cc(C2c3c(nc4cc(C(F)(F)F)ccn34)CCN2C(=O)COc2ccc3ccccc3c2)ccc1O (centres unmarked) [Example 3.11.1, 1-(1-(4-hydroxy-3-methoxyphenyl)-7-(trifluoromethyl)-3,4-dihydroimidazo[1,2-a:5,4-c′]dipyridin-2(1H)-yl)-2-(naphthalen-2-yloxy)ethan-1-one]
7.62 | COc1ccc(C2c3c(nc4ccccn34)CCN2C(=O)COc2ccc3ccccc3c2)cc1OC (centres unmarked) [Example 1.1.5, 1-(1-(3,4-dimethoxyphenyl)-3,4-dihydroimidazo[1,2-a:5,4-c′]dipyridin-2(1H)-yl)-2-(naphthalen-2-yloxy)ethan-1-one]
7.40 | COc1ccc(C2c3c(nc4cc(Cl)c(C)cn34)CCN2C(=O)COc2ccc3ccccc3c2)cc1OC (centres unmarked) [Example 13.1.1, 1-(7-chloro-1-(3,4-dimethoxyphenyl)-8-methyl-3,4-dihydroimidazo[1,2-a:5,4-c′]dipyridin-2(1H)-yl)-2-(naphthalen-2-yloxy)ethan-1-one]
7.54 | COc1ccc(C2c3c(nc4cc(C(F)(F)F)ccn34)CCN2C(=O)COc2ccccc2C(F)(F)F)cc1OC (centres unmarked) [Example 3.1.7, 1-(1-(3,4-dimethoxyphenyl)-7-(trifluoromethyl)-3,4-dihydroimidazo[1,2-a:5,4-c′]dipyridin-2(1H)-yl)-2-(2-(trifluoromethyl)phenoxy)ethan-1-one]
7.37 | O=C(COc1ccc(CN2CCOCC2)cc1Cl)N1CCc2nc3cc(C(F)(F)F)ccn3c2C1c1cccnc1F (centres unmarked) [Example 3.2.1, 2-(2-chloro-4-(morpholinomethyl)phenoxy)-1-(1-(2-fluoropyridin-3-yl)-7-(trifluoromethyl)-3,4-dihydroimidazo[1,2-a:5,4-c′]dipyridin-2(1H)-yl)ethan-1-one]
6.71 | O=C(COc1ccc2ccccc2c1)N1CCc2nc3cc(C(F)(F)F)ccn3c2C1c1ccnc(Cl)c1 (centres unmarked) [Example 3.56.1, 1-(1-(2-chloropyridin-4-yl)-7-(trifluoromethyl)-3,4-dihydroimidazo[1,2-a:5,4-c′]dipyridin-2(1H)-yl)-2-(naphthalen-2-yloxy)ethan-1-one]
7.28 | COc1ccc(C2c3c(nc4cc(C(F)(F)F)ccn34)CCN2C(=O)COc2ccc3ccccc3c2)nc1OC (centres unmarked) [Example 3.20.1, 1-(1-(5,6-dimethoxypyridin-2-yl)-7-(trifluoromethyl)-3,4-dihydroimidazo[1,2-a:5,4-c′]dipyridin-2(1H)-yl)-2-(naphthalen-2-yloxy)ethan-1-one]
7.77 | CCc1nc(C)ccc1OCC(=O)N1CCc2nc3cc(C(F)(F)F)ccn3c2C1c1ccc(C)cc1F (centres unmarked) [Example 3.22.4, 2-((2-ethyl-6-methylpyridin-3-yl)oxy)-1-(1-(2-fluoro-4-methylphenyl)-7-(trifluoromethyl)-3,4-dihydroimidazo[1,2-a:5,4-c′]dipyridin-2(1H)-yl)ethan-1-one]
7.85 | CN(CC(F)(F)F)c1ccc(OCC(=O)N2CCc3nc4ccccn4c3C2c2ccc(Cl)cc2F)c(Cl)n1 (centres unmarked) [Example 1.4.11, 1-(1-(4-chloro-2-fluorophenyl)-3,4-dihydroimidazo[1,2-a:5,4-c′]dipyridin-2(1H)-yl)-2-((2-chloro-6-(methyl(2,2,2-trifluoroethyl)amino)pyridin-3-yl)oxy)ethan-1-one]
7.36 | O=C(COc1cccnc1Cl)N1CCc2nc3cc(C(F)(F)F)ccn3c2C1c1ccc(Cl)cc1F (centres unmarked) [Example 3.4.1, 1-(1-(4-chloro-2-fluorophenyl)-7-(trifluoromethyl)-3,4-dihydroimidazo[1,2-a:5,4-c′]dipyridin-2(1H)-yl)-2-((2-chloropyridin-3-yl)oxy)ethan-1-one]
7.66 | O=C(COc1ccc(CN2CCOCC2)cc1Cl)N1CCc2nc3cc(C(F)(F)F)ccn3c2C1c1cc(-c2ccccc2)on1 (centres unmarked) [Example 3.46.1, 2-(2-chloro-4-(morpholinomethyl)phenoxy)-1-(1-(5-phenylisoxazol-3-yl)-7-(trifluoromethyl)-3,4-dihydroimidazo[1,2-a:5,4-c′]dipyridin-2(1H)-yl)ethan-1-one]
7.44 | CCc1ncccc1OCC(=O)N1CCc2nc3cc(C(F)(F)F)ccn3c2C1c1ccc(OC)c(OC)c1 (centres unmarked) [Example 3.1.30, 1-(1-(3,4-dimethoxyphenyl)-7-(trifluoromethyl)-3,4-dihydroimidazo[1,2-a:5,4-c′]dipyridin-2(1H)-yl)-2-((2-ethylpyridin-3-yl)oxy)ethan-1-one]
6.31 | O=C(COc1ccc2ccccc2c1)N1CCc2nc3cc(C(F)(F)F)ccn3c2C1c1ccc(F)c(F)c1 (centres unmarked) [Example 3.34.1, 1-(1-(3,4-difluorophenyl)-7-(trifluoromethyl)-3,4-dihydroimidazo[1,2-a:5,4-c′]dipyridin-2(1H)-yl)-2-(naphthalen-2-yloxy)ethan-1-one]

Further lines, the molecule ahead of its results:

SMILES | pIC50
COC(=O)c1ccc(C2c3c(nc4ccccn34)CCN2C(=O)COc2ccc(C(=O)NC3CC3)nc2Cl)c(F)c1 (centres unmarked) [Example 1.15.2, methyl-4-(2-(2-((2-chloro-6-(cyclopropylcarbamoyl)pyridin-3-yl)oxy)acetyl)-1,2,3,4-tetrahydroimidazo[1,2-a:5,4-c′]dipyridin-1-yl)-3-fluorobenzoate] | 7.31
O=C(COc1ccc(N2CCOCC2)nc1Cl)N1CCc2nc3cccnn3c2C1c1ncc(C2CC2)cc1F (centres unmarked) [Example 16.2.1, 2-((2-chloro-6-morpholinopyridin-3-yl)oxy)-1-(9-(5-cyclopropyl-3-fluoropyridin-2-yl)-6,9-dihydropyrido[4′,3′:4,5]imidazo[1,2-b]pyridazin-8(7H)-yl)ethan-1-one] | 7.85
CN(CCO)c1ccc(OCC(=O)N2CCc3nc4ccccn4c3C2c2ccc(Cl)cc2F)c(Cl)n1 (centres unmarked) [Example 1.4.10, 1-(1-(4-chloro-2-fluorophenyl)-3,4-dihydroimidazo[1,2-a:5,4-c′]dipyridin-2(1H)-yl)-2-((2-chloro-6-((2-hydroxyethyl)(methyl)amino)pyridin-3-yl)oxy)ethan-1-one] | 7.06
Cc1ccc(C2c3c(nc4cc(C(F)(F)F)ccn34)CCN2C(=O)COc2ccc(CN3CCOCC3)cc2Cl)c(F)c1 (centres unmarked) [Example 3.22.1, 2-(2-chloro-4-(morpholinomethyl)phenoxy)-1-(1-(2-fluoro-4-methylphenyl)-7-(trifluoromethyl)-3,4-dihydroimidazo[1,2-a:5,4-c′]dipyridin-2(1H)-yl)ethan-1-one] | 8.15
CCc1ncccc1OCC(=O)N1CCc2nc3ccccn3c2C1c1ccc(Cl)nc1F (centres unmarked) [Example 1.11.2, 1-(1-(6-chloro-2-fluoropyridin-3-yl)-3,4-dihydroimidazo[1,2-a:5,4-c′]dipyridin-2(1H)-yl)-2-((2-ethylpyridin-3-yl)oxy)ethan-1-one] | 6.91
Cc1ccc(C2c3c(nc4ccccn34)CCN2C(=O)COc2ccc(Cl)cc2Cl)cc1C (centres unmarked) [Example 1.10.1, 2-(2,4-dichlorophenoxy)-1-(1-(3,4-dimethylphenyl)-3,4-dihydroimidazo[1,2-a:5,4-c′]dipyridin-2(1H)-yl)ethan-1-one] | 6.35
O=C(COc1ccc(N2CCOCC2)nc1Cl)N1CCc2nc3ccccn3c2C1c1ncc(Cl)cc1F (centres unmarked) [Example 1.14.1, 1-(1-(5-chloro-3-fluoropyridin-2-yl)-3,4-dihydroimidazo[1,2-a:5,4-c′]dipyridin-2(1H)-yl)-2-((2-chloro-6-morpholinopyridin-3-yl)oxy)ethan-1-one] | 8.40
O=C(COc1ccc(CN2CCOCC2)nc1Cl)N1CCc2nc3ccccn3c2C1c1ccc(Cl)cc1F (centres unmarked) [Example 1.4.4, 1-(1-(4-chloro-2-fluorophenyl)-3,4-dihydroimidazo[1,2-a:5,4-c′]dipyridin-2(1H)-yl)-2-((2-chloro-6-(morpholinomethyl)pyridin-3-yl)oxy)ethan-1-one] | 7.05
COc1ccc(C2c3c(nc4cc(C(F)(F)F)ccn34)CCN2C(=O)COc2ccc(CN3CCOCC3)cc2Cl)cc1OC (centres unmarked) [Example 3.1.26, 2-(2-chloro-4-(morpholinomethyl)phenoxy)-1-(1-(3,4-dimethoxyphe-nyl)-7-(trifluoromethyl)-3,4-dihydroimidazo[1,2-a:5,4-c′]dipyridin-2(1H)-yl)ethan-1-one] | 7.77
O=C(COc1cccnc1C(F)(F)F)N1CCc2nc3cccnn3c2C1c1ncc(C2CC2)cc1F (centres unmarked) [Example 16.2.3, 1-(9-(5-cyclopropyl-3-fluoropyridin-2-yl)-6,9-dihydropyrido[4′,3′:4,5]imidazo[1,2-b]pyridazin-8(7H)-yl)-2-((2-(trifluoromethyl)pyridin-3-yl)oxy)ethan-1-one] | 6.84
COC(=O)COc1cc(C2c3c(nc4cc(Cl)ccn34)CCN2C(=O)COc2ccc(CN3CCOCC3)cc2Cl)ccc1OC (centres unmarked) [Example 2.14.1, Methyl 2-(5-(7-chloro-2-(2-(2-chloro-4-(morpholinomethyl)phenoxy)acetyl)-1,2,3,4-tetrahydroimidazo[1,2-a:5,4-c′]dipyridin-1-yl)-2-methoxyphenoxy)acetate] | 7.06
CCc1ncc(C2c3c(nc4cc(C(F)(F)F)ccn34)CCN2C(=O)COc2ccc(CN3CCOCC3)cc2Cl)cn1 (centres unmarked) [Example 3.54.2, 2-(2-chloro-4-(morpholinomethyl)phenoxy)-1-(1-(2-ethylpyrimidin-5-yl)-7-(trifluoromethyl)-3,4-dihydroimidazo[1,2-a:5,4-c′]dipyridin-2(1H)-yl)ethan-1-one] | 6.38
